Tested on: Humane Glykogenphosphorylase a
Assay: Glycogen phosphorylase a activity test (reverse direction, release of inorganic phosphate)
Format: biochemical, human
Settings: 10 µM test substance; 40 min at room temperature; duplicate determinations
Excerpt: Glykogenphosphorylase a Aktivitätstest
Der Effekt von Verbindungen auf die Aktivität der aktiven Form der Glykogenphosphorylase (GPa) wurde in der umgekehrten Richtung, durch Verfolgen der Glykogensynthese aus Glukose-1-Phosphat an Hand der Bestimmung der Freisetzung von anorganischem Phosphat, gemessen. Alle Reaktionen wurden als Doppelbestimmungen in Mikrotiterplatten mit 96-Vertiefungen (Half Area Plates, Costar Nr. 3696) durchgeführt, wobei die Änderung der Absorption auf Grund der Bildung des Reaktionsprodukts bei der weiter unten spezifizierten Wellenlänge in einem Multiskan Ascent Elisa Reader (Lab Systems, Finnland) gemessen wurde. Um die GPa Enzymaktivität in der umgekehrten Richtung zu messen, wurde die Umwandlung von Glukose-1-Phosphat in Glykogen und anorganisches Phosphat nach der allgemeinen Methode von Engers et al. (Engers HD, Shechosky S, Madsen NB, Can J Biochem 1970 Jul;48(7):746-754) mit folgenden Modifikationen gemessen: Humane Glykogenphosphorylase a (zum Beispiel mit 0,76 mg Protein / ml (Aventis Pharma Deutschland GmbH), gelöst in Pufferlösung E (25 mM β-Glyzerophosphat, pH 7,0, 1 mM EDTA und 1 mM Dithiotreitol) wurde mit Puffer T (50 mM Hepes, pH 7,0, 100 mM KCI, 2,5 mM. EDTA, 2,5 mM MgCl2·6H2O) und Zusatz von 5 mg/ml Glykogen auf eine Konzentration von 10 µg Protein/ml verdünnt. […]

Row | % Inhibition bei 10 µM [%] | SMILES
1 | 3 | CCOC(=O)c1ccc(NC(=O)NC(=O)c2c(F)cccc2F)cc1 [Vergleichsbeispiel A]
2 | 46 | Cc1ccccc1C(=O)NC(=O)Nc1cc(C(=O)O)ccc1Cl [compound 5]

— patent EP1497263B1, “ACYL-3-CARBOXYPHENYLUREA DERIVATIVES, METHOD FOR PRODUCTION AND USE THEREOF” (Sanofi-Aventis Deutschland GmbH, priority 2002, dated 2003)
